This note sets out measurements from patent publication US7851474B2, “Dipiperazinyl ketones and related analogues” (Neurogen Corporation, priority 2005, dated 2010).

Read-outs that look alike come from different tables or passages of the source.

Assay [1] has as its target T1, chimeric human H3 receptor (Homo sapiens, UniProt Q9Y5N1, E19D).
T1 construct: made in house; host or cells: Sf9 insect cells (baculovirus infection); P2 membrane preparation
As to the kind of experiment: Chimeric human H3 receptor screening GTP binding assay (inhibition of histamine-stimulated GTP-gamma35S binding, Example 8). It is filed as biochemical. The note with it: 1 h, read-out: percent inhibition of agonist-induced GTP-gammaS binding to H3. As for the experimental part:
This Example illustrates a representative screening assay for evaluating inhibition of histamine-stimulated GTP-gamma^35S binding. Such GTP binding activity can be used to identify H3 antagonists and inverse agonists. A compound analyzed in this assay is referred to herein as a “test compound,” and the initial identification of antagonists and inverse agonists is performed using a test compound concentration of 4 μM.
Four independent baculoviral stocks (one directing the expression of the chimeric human H3 receptor and three directing the expression of each of the three subunits of a heterotrimeric G-protein) are used to infect a culture of Sf9 cells as described above. P2 membranes are prepared as described above, and are resuspended by Dounce homogenization (tight pestle) in GTP binding assay buffer (50 mM Tris pH 7.4, 120 mM NaCl, 5 mM MgCl2, 2 mM EGTA, 1 mg/ml BSA, 0.2 mg/ml bacitracin, 0.02 mg/ml aprotinin, 0.01 mg/ml saponin, 10 μM GDP) and added to assay tubes at a concentration of 35 μg protein/reaction tube. Non-radiolabeled test compounds are added to separate reactions at a concentration of 4 μM along with 1 μM histamine (agonist). Reactions are initiated by the addition of 125 pM GTP-gamma^35S with a final assay volume of 0.20 ml.
After a 60-min incubation at room temperature, reactions are terminated by vacuum filtration over GF/C filters (pre-soaked in 50 mM Tris pH 7.4, 120 mM NaCl plus 0.1% BSA) followed by washing with ice-cold buffer (50 mM Tris pH 7.4, 120 mM NaCl). The amount of receptor-bound (and thereby membrane-bound) GTP-gamma^35S is determined by measuring the bound radioactivity, preferably by liquid scintillation spectrometry of the washed filters. Non-specific binding is determined using 10 uM GTP-gammaS and typically represents less than 5 percent of total binding. After subtraction of non-specific binding, data is expressed as percent inhibition of 1 μM histamine signal.
Neutral antagonists are those test compounds that reduce the histamine-stimulated GTP binding activity towards, but not below, baseline levels. In contrast, in the absence of added histamine, inverse agonists reduce the GTP binding activity of the receptor-containing membranes below baseline. Any test compound that elevates GTP binding activity above baseline in the absence of added histamine in this assay is defined as having agonist activity.

Assay [2] concerns the target T1, chimeric human H3 receptor. As to the kind of experiment: Chimeric human H3 receptor GTP binding assay (agonist-stimulated GTP-gamma35S binding, Example 7). It is filed as biochemical. The method, boiled down: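 Sf9 membranes co-expressing the chimeric receptor and heterotrimeric G-protein subunits, 35 μg protein per tube, in pH 7.4 Tris buffer with 10 μM GDP. Test compounds at 10^−10 to 10^−6 M with 1 μM histamine, 60 min at room temperature. Filter-bound GTP-gamma^35S read by scintillation; IC50 from non-linear regression of dose-response curves.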
Background: GTPγS resists hydrolysis and so accumulates on activated G proteins.

The mark [3] stands for this setting: "+" in Ki of Table II, assay of Example 8.
Where [4] appears, read: Table II, "+" in the column headed Ki, assay of Example 8.
Setting [5] is: Table II; assay of Example 7; "*" in Ki; read-out: Ki.
[6] abbreviates: assay of Example 7; "*" in Ki of Table II; read-out: Ki.

T1 sequence (Q9Y5N1 with tags, fused parts or gaps E19D): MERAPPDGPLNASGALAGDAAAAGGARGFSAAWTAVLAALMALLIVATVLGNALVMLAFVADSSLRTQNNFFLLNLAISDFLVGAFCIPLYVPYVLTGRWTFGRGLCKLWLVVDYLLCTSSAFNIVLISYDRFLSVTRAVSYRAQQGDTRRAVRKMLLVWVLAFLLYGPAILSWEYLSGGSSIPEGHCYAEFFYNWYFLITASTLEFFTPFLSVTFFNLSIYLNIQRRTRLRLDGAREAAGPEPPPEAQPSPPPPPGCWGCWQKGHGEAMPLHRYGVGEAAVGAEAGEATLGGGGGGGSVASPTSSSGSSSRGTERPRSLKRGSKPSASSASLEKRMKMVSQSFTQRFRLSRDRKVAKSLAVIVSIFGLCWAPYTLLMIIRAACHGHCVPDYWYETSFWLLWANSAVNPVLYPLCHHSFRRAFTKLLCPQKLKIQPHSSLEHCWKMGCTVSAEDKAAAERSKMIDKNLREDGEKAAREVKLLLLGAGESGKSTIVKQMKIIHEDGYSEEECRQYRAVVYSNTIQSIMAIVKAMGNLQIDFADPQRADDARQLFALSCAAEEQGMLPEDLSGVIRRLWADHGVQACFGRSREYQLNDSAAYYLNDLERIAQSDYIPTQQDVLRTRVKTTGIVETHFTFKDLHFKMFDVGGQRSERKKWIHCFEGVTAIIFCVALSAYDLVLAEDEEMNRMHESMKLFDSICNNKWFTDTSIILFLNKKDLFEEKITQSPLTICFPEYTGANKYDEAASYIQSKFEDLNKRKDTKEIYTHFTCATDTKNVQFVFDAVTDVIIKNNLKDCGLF

`CCCc1c(C(=O)N2CCN(CC(=O)N3CCN(C4CCC4)CC3)CC2)cnn1-c1ccc(Cl)cc1` [Compound 472, 1-{[1-(4-chlorophenyl)-5-propyl-1H-pyrazol-4-yl]carbonyl}-4-[2-(4-cyclobutylpiperazin-1-yl)-2-oxoethyl]piperazine]: the inhibition at 4 µM in assay [1] (setting [3]) was greater than 90%.

As to `O=C(CN1CCN(C(=O)c2ccccc2Oc2ccc(Cl)cc2)CC1)N1CCN(C2CCC2)CC1` [Compound 419, 1-[2-(4-chlorophenoxy)benzoyl]-4-[2-(4-cyclobutylpiperazin-1-yl)-2-oxoethyl]piperazine], the inhibition at 4 µM in assay [1] (assay described in Example 8, symbol + in column headed Ki of Table II) was greater than 90%.

Take `O=C(Cc1ccc(OC(F)(F)F)cc1)N1CCN(CC(=O)N2CCN(C3CCC3)CC2)CC1` [Compound 630, 1-cyclobutyl-4-[(4-{[4-(trifluoromethoxy)phenyl]acetyl}piperazin-1-yl)acetyl]piperazine]: in assay [1] (setting [4]), the inhibition at 4 µM is greater than 90%.

With `CSc1ncccc1C(=O)N1CCN(CC(=O)N2CCN(C3CCC3)CC2)CC1` [Compound 619], the inhibition at 4 µM in assay [1] (setting [4]) is greater than 90%.

For the compound `Cn1nc(C(F)(F)F)cc1-c1ccc(C(=O)N2CCN(CC(=O)N3CCN(C4CCC4)CC3)CC2)s1` [Compound 661, 1-cyclobutyl-4-{[4-({5-[1-methyl-3-(trifluoromethyl)-1H-pyrazol-5-yl]-2-thienyl}carbonyl)piperazin-1-yl]acetyl}piperazine], the inhibition at 4 µM in assay [1] (setting [4]) was greater than 90%.

Regarding `COc1ccc(C(=O)N2CCN(CC(=O)N3CCN(C4CCC4)CC3)CC2)c(OC)n1` [Compound 513, 1-cyclobutyl-4-({4-[(2,6-dimethoxypyridin-3-yl)carbonyl]piperazin-1-yl}acetyl)piperazine], the inhibition at 4 µM in assay [1] (setting [3]) is greater than 90%.

With `COc1cccc(/C=C/C(=O)N2CCN(CC(=O)N3CCN(C4CCC4)CC3)CC2)c1OC` [Compound 517, 1-cyclobutyl-4-({4-[(2E)-3-(2,3-dimethoxyphenyl)prop-2-enoyl]piperazin-1-yl}acetyl)piperazine], in assay [1] (setting [3]), the inhibition at 4 µM was greater than 90%.

Turning to `COc1ccccc1-c1cnc(N2CCN(CC(=O)N3CCN(C4CCC4)CC3)CC2)cn1` [Compound 951, 2-{4-[2-(4-cyclobutylpiperazin-1-yl)-2-oxoethyl]piperazin-1-yl}-5-(2-methoxyphenyl)pyrazine], in assay [2] (setting [5]), the Ki is less than 1000 nM.

On to `COc1cc(N2CCN(CC(=O)N3CCN(C4CCCCC4)CC3)CC2)ccc1Cl` [Compound 345, 1-(4-chloro-3-methoxyphenyl)-4-[2-(4-cyclohexylpiperazin-1-yl)-2-oxoethyl]piperazine], for which the Ki in assay [2] (assay of Example 7; symbol * in column headed Ki of Table II; read-out: Ki) was less than 1000 nM.

With `CCOC(=O)c1ccc(-c2ccc(N3CCN(CC(=O)N4CCN(C5CCC5)CC4)CC3)nn2)cc1` [Compound 1198, ethyl 4-(6-{4-[2-(4-cyclobutylpiperazin-1-yl)-2-oxoethyl]piperazin-1-yl}pyridazin-3-yl)benzoate], the Ki in assay [2] (setting [6]) is less than 1000 nM.

Turning to `O=C(CN1CCN(c2cnc(-c3cccc(C(F)(F)F)c3)cn2)CC1)N1CCN(C2CCC2)CC1` [Compound 976, 2-{4-[2-(4-cyclobutylpiperazin-1-yl)-2-oxoethyl]piperazin-1-yl}-5-[3-(trifluoromethyl)phenyl] pyrazine], the Ki in assay [2] (setting [5]) was less than 1000 nM.

`O=C(Cc1c(Cl)ccc(Cl)c1Cl)N1CCN(CC(=O)N2CCN(C3CCC3)CC2)CC1` [Compound 501, 1-cyclobutyl-4-({4-[(2,3,6-trichlorophenyl)acetyl]piperazin-1-yl}acetyl)piperazine]: the inhibition constant Ki in assay [2] ("*" in Ki of Table II; assay of Example 7; read-out: Ki) was less than 1000 nM.

Turning to `CC(C)OC1=NCN(c2ccccc2)C12CCN(CC(=O)N1CCN(C3CCC3)CC1)CC2` [Compound 1192, 8-[2-(4-cyclobutylpiperazin-1-yl)-2-oxoethyl]-4-isopropoxy-1-phenyl-1,3,8-triazaspiro[4.5]dec-3-ene], in assay [2] (setting [6]), the Ki is less than 1000 nM.

On to `CC1CN(C(=O)c2cccc(N3CCN(CC(=O)N4CCN(C5CCC5)CC4)CC3)c2)CC(C)O1` (centres unmarked) [Compound 1092, 4-(3-{4-[2-(4-cyclobutylpiperazin-1-yl)-2-oxoethyl]piperazin-1-yl}benzoyl)-2,6-dimethylmorpholine], for which the Ki in assay [2] (setting [5]) is less than 1000 nM.

Broadly, the inhibition is how much of the control response was suppressed. The Ki is the dissociation constant of the complex between target and ligand, obtained from inhibition or displacement.
